Experimental findings from patent publication US11696921B2, “Synthetic composition for microbiota modulation” (GLYCOM A/S, priority 2015, dated 2023) are described below.

Assay [1] relates to B. adolescentis phylogenetic group. Put plainly: Faecal microbiota / Bifidobacterium profiling after 2 weeks' daily HMO consumption by healthy adults. The note with it: oral. The assay is classed as in vivo, human. On the procedure:
(§1) A total of 100 male and female healthy adults are recruited to participate in the study. After a screening visit and run-in period of 1-2 weeks, the participants are selected and randomized into ten groups, each of 10 subjects. One group is administered a placebo product containing 2 grams of glucose. The remaining 9 groups are administered treatment product containing a) 20 g of 2′-FL, b) 10 g of 2′-FL, c) 5 g of 2′-FL, d) 20 g of LNnT, e) 10 g of LNnT, f) 5 g of LNnT, g) 20 g of a 2:1 mixture of 2′-FL and LNnT, h) 10 g of a 2:1 mixture of 2′-FL and LNnT, and i) 5 g of a 2:1 mixture of 2′-FL and LNnT for 2 weeks (the amounts correspond to a daily dose). The placebo and treatment products are in powder form in a unit dosage container.
(§2) At the second visit, eligibility criteria are checked and eligible subjects are randomised to the ten arms in the trial (treatment groups and placebo group). The faecal samples are collected and equipment for new samples are distributed. Participants are familiarised with an interactive internet enabled system which recorded data daily and are provided with either treatment or control products. Subjects are reminded not to change their usual diet during the study. Blood samples are collected for biomarker studies. The faecal samples are stored at −80° C. until analysis.
(§3) The study runs for 2 weeks with the participants consuming either a placebo or a treatment product daily. Participants are instructed to consume the products in the morning with breakfast. Compliance is monitored through the interactive internet enabled system.
(§4) At the end of the study, each participant has an exit visit with the medical team. Faecal samples and blood samples are collected.
(§5) To assess the microbiota profile, DNA is extracted from the faecal samples using a 96-well PowerSoil DNA Isolation Kit (MO-BIO). A minimum of one sample-well per plate is kept empty to serve as a negative control during PCR. PCR is done with the forward primer S-D-Bact-0341-b-S-17 and reverse primer S-D-Bact-0785-a-A-21 (Klindworth et al. Nucleic Acids Res. 41, e1 (2013)) with Illumina adapters attached. These are universal bacterial 16S rDNA primers, which targeted the V3-V4 region. The following PCR program is used: 98° C. for 30 sec, 25× (98° C. for 10 s, 55° C. for 20 s, 72° C. for 20 s), 72° C. for 5 min. Amplification is verified by running the products on a 1% agarose gel. Barcodes are added in a nested PCR using the Nextera Index Kit V2 (Illumina) with the following PCR program: 98° C. for 30 sec, 8× (98° C. for 10 s, 55° C. for 20 s, 72° C. for 20 s), 72° C. for 5 min. Attachment of primers is verified by running the products on a 1% agarose gel. Products from the nested PCR are normalized using the SequalPrep Normalization Plate Kit and pooled. Pooled libraries are concentrated by evaporation and the DNA concentration of pooled libraries is measured on a Qubit fluorometer using the Qubit High Sensitivity Assay Kit (Thermo Fisher Scientific). Sequencing is done on a MiSeq desktop sequencer using the MiSeq Reagent Kit V3 (Illumina) for 2×300 bp paired-end sequencing. The 64-bit version of USEARCH is used for bioinformatical analysis of the sequence data.
(§6) To assess the Bifidobacterium community, ITS profiling of DNA samples is performed according to Milani et al. FEMS Microbiol. Ecol. 90, 493 (2014). […] Both B. adolescentis and B. pseudocatenulatum are members of the B. adolescentis phylogenetic group. It can be seen that oral ingestion of the HMOs clearly increases the abundance of B. adolescentis and/or B. pseudocatenulatum in the microbiota of healthy adults, as well as their relative abundance compared to the totality of other Bifidobacterium species.

Assay [2] concerns totality of B. longum + B. bifidum + B. animalis lactis + B. angulatum. The assay is described as above. The class given is in vivo, human. The note with it: oral. On the procedure:
as §1, §2, §3, §4, §5, §6

As for 2′-fucosyllactose [2′-FL], the “percentage increase of B. adolescentis phylogenetic group in human faeces” value in assay [1] (5 g daily dose) is 50%; in assay [1] (10 g daily dose) it was 325%; in assay [1] (20 g daily dose), 120%. The “percentage increase of totality of B. longum + B. bifidum + B. animalis lactis + B. angulatum in human faeces” value was 0% in assay [2] (5 g daily dose), 20% in assay [2] (10 g daily dose) and 15% in assay [2] (20 g daily dose).
With `CC(=O)N[C@H]1[C@H](O[C@H]2[C@@H](O)[C@@H](CO)O[C@@H](O[C@H]3[C@H](O)[C@@H](O)C(O)O[C@@H]3CO)[C@@H]2O)O[C@H](CO)[C@@H](O[C@@H]2O[C@H](CO)[C@H](O)[C@H](O)[C@H]2O)[C@@H]1O` (mixture of isomers) [LNnT, lacto-N-neotetraose], the figures for the “percentage increase of B. adolescentis phylogenetic group in human faeces” value in assay [1] (5 g daily dose), in assay [1] (10 g daily dose) and in assay [1] (20 g daily dose) were 90%, 195% and 185%, respectively. For the same molecule, the results for the “percentage increase of totality of B. longum + B. bifidum + B. animalis lactis + B. angulatum in human faeces” value in assay [2] (5 g daily dose), in assay [2] (10 g daily dose) and in assay [2] (20 g daily dose) were 50%, 130% and 105%, respectively.
